Laboratory results published in patent US12466816B2, “Fused cyclic compound capable of degrading protein and use thereof” (Medshine Discovery Inc., priority 2019, dated 2025).
Blank lines part the entries; values can stand above or below the compound they belong to.

Experiments:
Type in all cases: cell-based
U87-MG cells = experiment: Drug synergism experiment with DNA damaging agents (CCK-8); conditions: 10 μM WX106, low concentrations of agent, 72 hours
Method: U87-MG cells were treated with WX106 and DNA damaging agents, temozolomide, cisplatin, and gemcitabine for 72 hours, respectively, and the proliferation level of cells was detected by CCK-8. Among them, the WX106 concentration was 10 μM, and the DNA damaging agent concentrations were 0.1 μM, 1 μM and 10 μM, respectively.

CRBN = CRBN (Homo sapiens, UniProt Q96SW2); experiment: Protein degradation competition experiment (CC885-induced GSPT1 degradation); parameters: endogenous in cells; host or cells: MOLT-4; conditions: MOLT-4 cells, co-treated with 10 nM CC885, 4 hours, Western blot
Method: MOLT-4 cells were co-treated with 0.1, 1 and 10 μM of WX106 and 10 nM of CC885 for 4 hours, and the protein level of GSPT1 was then detected by Western blot, with Poma (Pomalidomide, Selleck, S1567) acting as the positive control in the experiment. Cells were collected and denatured in protein loading buffer (50 mM Tris-HCL 2% SDS, 0.025% BPB, 1% β-mercaptoethanol, 10% glycerol) at 98° C. for 10 min. Proteins were separated by SDS-PAGE and transferred to a PVDF membrane (Millipore, IPVH00010), blocked with 5% skim milk (dissolved in TBST buffer), incubated with a primary antibody overnight at 4° C., and then incubated with a secondary antibody (Anti-rabbit IgG, HRP-linked Antibody, Cell Signaling, 7074S) at room temperature for 1 hour, and the bands on the membrane were detected by chemiluminescence (ECL chemiluminescence kit, Beyotime Biotechnology, P0018AM).

SNU182 = experiment: Cell growth competition experiment with Poma (CCK-8); conditions: 1, 10 and 50 μM Poma with 10 μM WX106, 72 hours
Method: (§1) Principle: It is known that Poma is a compound that binds to CRBN, and Poma has no obvious inhibitory effect on adherent cells. If a compound depends on CRBN to inhibit cell growth, Poma's competitive binding to CRBN will definitely affect the cytotoxic effect of this compound. Cells were treated with 1, 10 and 50 μM of Poma and 10 μM of WX106 for 72 hours; cell viability was detected using the CCK-8 kit and cell survival rate was calculated [based on the formula], cell survival rate=[(As −Ab)/(Ac−Ab)]×100% (where As represents the absorbance of the experimental wells, Ac represents the absorbance of the control wells, and Ab represents the absorbance of the blank wells); finally, the effect of the competitive binding of Poma on the cytotoxicity of WX106 was calculated to determine whether the cytotoxicity of WX106 is dependent on CRBN. This step was applied to both SUN182 and Hep3B cells.
CC885 was the positive control in this experiment and is known to kill tumor cells in a CRBN-dependent manner.

Hep3B cells = experiment: as above; conditions: 1, 10 and 50 μM Poma with 10 μM WX106, 72 hours
Method: as §1

Wee1 = Wee1 (Homo sapiens, UniProt P30291); experiment: Detection of compounds that degrade Wee1 protein (Western blot); parameters: endogenous in cells; host or cells: MOLT-4, U87-MG; conditions: MOLT-4 cells 10 μM 4 hours; U87-MG cells 1 μM 24 hours
Method: MOLT-4 cells were treated with 10 μM of the test compound for 4 hours and U87-MG cells were treated with 1 μM of the test compound for 24 hours, respectively. With GAPDH (Santa Cruz, sc-32233) as the internal reference protein, the protein level of Wee1 (Cell Signaling, 13084S) was detected using Western blot. Cells were collected, lysed with protein loading buffer (1M Tris-HCl, 10% SDS, 0.025% BPB), and denatured at 98° C. for 10 min before Western blot analysis. The main steps include: 1) Electrophoresis: The protein was separated by SDS-PAGE electrophoresis. During the electrophoresis, the voltage was adjusted to 80 v for about 30 min, and then the voltage was adjusted to 120 v until the bromophenol blue ran out of the gel. 2) Transfer to a membrane: the gel was stuck to a methanol-activated PVDF membrane using the method of wet transfer, and after the top and bottom layers were wrapped with filter paper, the membrane was placed into the gel holder cassette and fixed to the transfer tank, and transfer was performed at a constant current of 250 mA for 90 min; 3) Blocking: the PVDF membrane with trace protein was placed into the antibody incubation box, 5% skim milk was added to completely cover the PVDF membrane, and incubation was performed for 1 hour on a shaker at room temperature; 4) Incubation of the primary antibody: the primary antibody was prepared with 5% BSA (1:1000) and incubated overnight on a shaker at 4° C.; 5) Incubation of the secondary antibody: the membrane was washed thrice with TBST, the secondary antibody (prepared with 5% skim milk) was added (according to the species source of the primary antibody, different secondary antibodies with a dilution range of 1:3000-1:10000 were used), and incubation was performed on a shaker at room temperature for one hour; 5) Exposure: the membrane was washed thrice with TBST and the bands on the membrane were detected by chemiluminescence.

pro-degradation effect on Wee1 (Wee1): pro-degradation effect on Wee1
Structure (SMILES): Cc1ccc(C(=O)Nc2ccc3occ(C4CCC(=O)NC4=O)c3c2)cc1 (stereo not shown) [WX003]

pro-degradation effect on Wee1 (Wee1): pro-degradation effect on Wee1
Structure (SMILES): O=C1CCC(c2coc3ccc(NC(=O)c4ccccc4)cc23)C(=O)N1 (stereo not shown) [WX005]

pro-degradation effect on Wee1 (Wee1): pro-degradation effect on Wee1
Structure (SMILES): CCCC(=O)Nc1ccc2occ(C3CCC(=O)NC3=O)c2c1 (stereo not shown) [WX006]

More lines, now with the values behind:

Structure (SMILES): N.N.[Cl][Pt][Cl] [Cisplatin, cisplatin]
proliferation of U87-MG cells, DNA damaging agent at low concentrations in combination with WX106 (U87-MG cells): significantly inhibit the proliferation of U87-MG cells

Structure (SMILES): Nc1cccc2c1C(=O)N(C1CCC(=O)NC1=O)C2=O (stereo not shown) [Poma, Pomalidomide]
effect on degradation of GSPT1 induced by CC885 (CRBN): could inhibit the pro-degradation of GSPT1 by CC885
effect of Poma on the cytotoxicity caused by WX106 (SNU182): capable of competitively inhibiting the cytotoxicity caused by WX106
effect of Poma on the cytotoxicity caused by WX106 (Hep3B cells): capable of competitively inhibiting the cytotoxicity caused by WX106

Structure (SMILES): O=C1CCC(c2coc3ccc(NC(=O)c4ccnc(C(F)(F)F)c4)cc23)C(=O)N1 (stereo not shown) [WX002]
pro-degradation effect on Wee1 (Wee1): pro-degradation effect on Wee1

Structure (SMILES): O=C1CCC(c2coc3ccc(NC(=O)c4cccc(Cl)c4)cc23)C(=O)N1 (stereo not shown) [WX004]
pro-degradation effect on Wee1 (Wee1): pro-degradation effect on Wee1

Structure (SMILES): Nc1ccn([C@@H]2O[C@H](CO)[C@@H](O)C2(F)F)c(=O)n1 [gemcitabine]
proliferation of U87-MG cells, DNA damaging agent at low concentrations in combination with WX106 (U87-MG cells): significantly inhibit the proliferation of U87-MG cells
